Columns and labels:
[1] = Pharmacokinetic evaluation in mice; assay type: in vivo; settings: mouse, plasma, 0.048 mg/kg, C57BL/6 mice, single SC 0.048 mpk; for half-life: read-out: Half-life T1/2 (converted); for AUC(0-t): read-out: Integral of the SC concentration AUC0-72 h; for Cmax: read-out: Maximum plasma concentration
Protocol: Pharmacokinetics of the compound in C57BL/6 mice were assayed.
The pharmacokinetic characteristics of the compound in rodents after a subcutaneous injection were assayed using the standard protocol. In the assay, the candidate compound was formulated into a clear solution and given to mice by a single subcutaneous injection (SC, 0.048 mpk). The solvent of the subcutaneous injection was citrate buffer (20 mM, pH=7). Whole blood was collected, and plasma was prepared. Drug concentration was analyzed by LC-MS/MS method, and pharmacokinetic parameters were calculated using Phoenix WinNonlin software.

GCGR = target: T1, GCGR (Homo sapiens, UniProt P47871); test: In vitro agonistic activity on GCGR (cAMP assay); assay type: cell-based; settings: HEK293 cell line; for Agonistic activity on GCGR Max Activity (%): Max Dose 100 nM
T1 construct: host or cells: HEK293
T1 sequence (P47871 26-477, species assumed): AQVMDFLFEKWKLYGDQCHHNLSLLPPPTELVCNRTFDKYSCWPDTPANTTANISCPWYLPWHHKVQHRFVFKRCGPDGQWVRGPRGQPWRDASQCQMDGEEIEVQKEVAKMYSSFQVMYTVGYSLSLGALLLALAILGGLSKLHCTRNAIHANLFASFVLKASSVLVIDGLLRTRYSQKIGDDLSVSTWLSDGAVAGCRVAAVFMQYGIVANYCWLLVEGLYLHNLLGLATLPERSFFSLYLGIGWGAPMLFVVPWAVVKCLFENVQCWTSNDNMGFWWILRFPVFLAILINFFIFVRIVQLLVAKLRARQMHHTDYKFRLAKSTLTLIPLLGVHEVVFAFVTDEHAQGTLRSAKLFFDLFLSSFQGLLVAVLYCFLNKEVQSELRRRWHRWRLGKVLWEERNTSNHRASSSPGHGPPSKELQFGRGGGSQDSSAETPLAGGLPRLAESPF
Protocol: (§1) The cell lines were constructed by Shanghai WuXi AppTec.
(§2) The compounds to be assayed were serially diluted 4-fold with Bravo to obtain 10 concentrations, with a starting concentration of 30 μM.
(§3) 1) 100 nL of the compound was transferred to an OptiPlate-384 plate using Echo.
(§4) 2) The OptiPlate-384 plate was centrifuged at 1000 rpm for 5 seconds.
(§5) 1) A GLP-1R/GIPR/GCGR cell cryopreservation tube was quickly placed in warm water at 37° C. to thaw.
(§6) 2) The cell suspension was transferred to a 15 mL centrifuge tube, and gently washed with 10 ml of HBSS.
(§7) 3) The centrifuge tube was centrifuged at 1000 rpm at room temperature for 1 minute.
(§8) 4) The supernatant was discarded.
(§9) 5) The cells at the bottom were gently dispersed and gently washed with 10 ml of HBSS. The cells were centrifuged and sedimented, and finally resuspended with the assay buffer.
(§10) 6) Vi-cell was used to measure the cell density and viability.
(§11) 7) The concentration of GLP-1R/GIPR/GCGR cells was diluted to 2.0*105/mL with the assay buffer.
(§12) 8) […] of the diluted cell suspension was transferred to the OptiPlate-384 plate.
(§13) 9) The plate was incubated at room temperature for 30 minutes.
(§14) 1) 10 μL of 800 nM gradient diluted cAMP standard was added into an empty well of the OptiPlate-384 plate.
(§15) 2) 10 μL of cAMP assay reagent was added.
(§16) 3) The OptiPlate-384 plate was covered with a TopSeal-A film and incubated at room temperature for 60 minutes.
(§17) The TopSeal-A was peeled off and the plate was read on the EnVision.

GLP-1R = target: T2, GLP-1R (Homo sapiens, UniProt P43220); test: In vitro agonistic activity on GLP-1R (cAMP assay); assay type: cell-based; settings: HEK293 cell line; for Agonistic activity on GLP-1R Max Activity (%): Max Dose 20 nM
T2 construct: host or cells: HEK293
T2 sequence (P43220 24-463, species assumed): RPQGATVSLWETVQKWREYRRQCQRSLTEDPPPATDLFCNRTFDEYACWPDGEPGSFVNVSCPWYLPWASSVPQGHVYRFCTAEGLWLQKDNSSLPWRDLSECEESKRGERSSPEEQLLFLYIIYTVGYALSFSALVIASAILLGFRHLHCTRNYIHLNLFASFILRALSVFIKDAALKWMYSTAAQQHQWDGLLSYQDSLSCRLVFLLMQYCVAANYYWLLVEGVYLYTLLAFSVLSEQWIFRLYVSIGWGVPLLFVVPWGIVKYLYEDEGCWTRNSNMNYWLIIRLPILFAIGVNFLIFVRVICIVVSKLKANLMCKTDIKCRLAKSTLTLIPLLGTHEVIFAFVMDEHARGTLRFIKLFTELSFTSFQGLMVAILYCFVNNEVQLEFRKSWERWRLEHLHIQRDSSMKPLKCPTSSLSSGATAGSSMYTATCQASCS
Protocol: as §1, §2, §3, §4, §5, §6, §7, §8, §9, §10, §11, §12, §13, §14, §15, §16, §17

DIO mice = test: Drug efficacy study in DIO mice (weight loss); assay type: in vivo; settings: 10 nmol/kg subcutaneous, once every three days
Protocol: The weight loss effect of the assay compound in DIO mice was studied.
1. After arriving at the facility, the DIO mice were raised in an animal breeding room with strictly controlled environmental conditions. The temperature in the breeding room was maintained at 20 to 24° C., and the humidity was maintained at 30 to 70%. The temperature and humidity in the breeding room were monitored in real time using a thermo-hygrometer, and the temperature and humidity were recorded twice a day (once in the morning and once in the afternoon). The lighting in the animal breeding room was controlled by an electronic timed lighting system. The lights were on for 12 hours and off for 12 hours every day (turned on at 7:00 am and turned off at 19:00 pm). During the assay, the animals were raised in individual cages and toys were provided in each cage. During the assay, the animals had free access to food (growth/breeding feed for rats and mice) and water.
2. The animals in each group were subcutaneously injected with a solvent or an assay compound (10 nmol/kg), respectively. The administration time was 9:30 in the morning. The administration frequency was once every three days, and the administration cycle was 21 days.

human plasma albumin = test: Plasma protein binding (PPB), human; assay type: in vitro ADME; design: key: NA indicates that the plasma protein binding is too high, and no free drug is detected at a normal plasma protein concentration; settings: ultracentrifugation
Protocol: (§18) The binding degree of the assay compound to human/mouse plasma albumin was studied.
(§19) 1. Matrix preparation: on the day of the assay, plasma was thawed in cold water and centrifuged at 3220 rpm for 5 min to remove all clots. The pH of the resulting plasma was measured and adjusted to 7.4±0.1 using 1% phosphoric acid or IN sodium hydroxide as needed.
(§20) 2. Dilution procedure for the assay compound: the assay compound was dissolved in dimethyl sulfoxide (DMSO) to prepare stock solutions with concentrations of 10 mM and 2 mM, respectively. A 40 μM working solution was prepared by diluting 2 μL of stock solution (2 mM) with 98 μL of DMSO. A 400 μM working solution of the control compound was prepared by diluting 10 μL of stock solution with 240 μL of DMSO. The working solution of the compound (5 μL) was mixed well with a blank matrix (995 μL) at a ratio of 1:200 to prepare a loading matrix.
(§21) 3.1 An equal volume of 30 μL of loading matrix (n=2) was transferred to a sample collection plate to prepare a time 0 (T0) sample for residue determination. […]
(§22) 3.4 At the end of centrifugation, 30 μL of protein-free samples and 30 μL of T samples were transferred from the second layer of the supernatant (below the top layer) to a new sample collection plate. […] The mixture was centrifuged at 4000 rpm for 20 min and 100 μL of supernatant from each sample was analyzed by LC-MS/MS.

mouse plasma albumin = test: Plasma protein binding (PPB), mouse; assay type: in vitro ADME; design: key: NA indicates that the plasma protein binding is too high, and no free drug is detected at a normal plasma protein concentration; settings: ultracentrifugation
Protocol: as §18, §19, §20, §21, §22

Row | SMILES | Tmax [1] [h] | half-life [1] [h] | AUC(0-t) [1] [µM·h] | Cmax [1] [nM] | EC50 (GCGR) [pM] | Agonistic activity on GCGR Max Activity (%) (GCGR) | EC50 (GLP-1R) [pM] | Agonistic activity on GLP-1R Max Activity (%) (GLP-1R) | ΔBody weight % (comparison of the body weight after 21 days with the body weight on day 1) (DIO mice) [%] | PPB % unbound (human) (human plasma albumin) | PPB % unbound (mouse) (mouse plasma albumin)
1 | CC(C)C[C@H](NC(=O)[C@H](CC(C)C)NC(=O)[C@H](Cc1c[nH]c2ccccc12)NC(=O)[C@@H]1CCCCNC(=O)CN(C(=O)COCCOCCNC(=O)COCCOCCNC(=O)CC[C@H](NC(=O)CCCCCCCCCCCCCCCCCCC(=O)O)C(=O)O)CC(=O)NCCCC[C@H](NC(=O)[C@H](C)NC(=O)[C@H](CCCCN)NC(=O)[C@H](CCCCN)NC(=O)[C@H](CCC(=O)O)NC(=O)[C@H](CC(=O)O)NC(=O)[C@H](CC(C)C)NC(=O)[C@H](Cc2ccc(O)cc2)NC(=O)[C@H](CCCCN)NC(=O)[C@H](CO)NC(=O)[C@H](Cc2ccc(O)cc2)NC(=O)[C@H](CC(=O)O)NC(=O)[C@H](CO)NC(=O)[C@@H](NC(=O)[C@H](Cc2ccccc2)NC(=O)[C@@H](NC(=O)CNC(=O)[C@H](CCC(N)=O)NC(=O)C(C)(C)NC(=O)[C@@H](N)Cc2c[nH]cn2)[C@@H](C)O)[C@@H](C)O)C(=O)N[C@@H](CCC(=O)O)C(=O)N[C@@H](Cc2ccccc2)C(=O)N[C@@H](C(C)C)C(=O)N1)C(=O)N[C@@H](CCC(=O)O)C(=O)NCC(=O)NCC(=O)N1CCC[C@H]1C(=O)N[C@@H](CO)C(=O)N[C@@H](CO)C(=O)NCC(N)=O [WX004] | 12 | 22 | 1.16 | 36 | 53.1 | 68.62 | 44.6 | 85.77 | −31.89 | NA/NA | NA/NA
2 | CC(C)C[C@H](NC(=O)[C@H](CC(C)C)NC(=O)[C@H](Cc1c[nH]c2ccccc12)NC(=O)[C@H](CCC(=O)O)NC(=O)[C@@H](NC(=O)[C@H](Cc1ccccc1)NC(=O)[C@H](CCC(=O)O)NC(=O)[C@@H]1CCCCNC(=O)CN(C(=O)COCCOCCNC(=O)COCCOCCNC(=O)CC[C@H](NC(=O)CCCCCCCCCCCCCCCCCCC(=O)O)C(=O)O)CC(=O)NCCCC[C@H](NC(=O)[C@H](CCC(=O)O)NC(=O)[C@H](CC(=O)O)NC(=O)[C@H](CC(C)C)NC(=O)[C@H](Cc2ccc(O)cc2)NC(=O)[C@H](CCCCN)NC(=O)[C@H](CO)NC(=O)[C@H](Cc2ccc(O)cc2)NC(=O)[C@H](CC(=O)O)NC(=O)[C@H](CO)NC(=O)[C@@H](NC(=O)[C@H](Cc2ccccc2)NC(=O)[C@@H](NC(=O)CNC(=O)[C@H](CCC(N)=O)NC(=O)C(C)(C)NC(=O)[C@@H](N)Cc2c[nH]cn2)[C@@H](C)O)[C@@H](C)O)C(=O)N[C@@H](CCCCN)C(=O)N[C@@H](C)C(=O)N1)C(C)C)C(=O)N[C@@H](CCC(=O)O)C(=O)NCC(=O)NCC(=O)N1CCC[C@H]1C(=O)N[C@@H](CO)C(=O)N[C@@H](CO)C(=O)NCC(N)=O [WX001] | 8 | 21 | 1.81 | 46 | 26.7 | 98.93 | 22.7 | 122.64 | −28.91 | NA/NA | NA/NA

From US20250326815A1, “STAPLE-CONTAINING POLYPEPTIDES AND APPLICATION THEREOF” (Soter Biopharma Pte. Ltd., priority 2021, published 2025)
